In brackets after ≈: the same amount, converted by molar mass. Read-outs that look alike come from different tables or passages of the source.
Key:
[1] = test system: Mtb in J774 cells; test: Mtb growth in J774 macrophage-like cells (mKO fluorescence); format: cell-based, Mycobacterium tuberculosis; conditions: for Mtb growth in J774 cells (in words): 10 μM, 6 days post-infection; for Inhibition of Mtb growth in J774 cells phenotype: compared to C6; for % Reduction of Intracellular Infection (J774.1 cells) at 10 μM cmpd: 10 μM compound
Method: For the tertiary screen of selected hit compounds in J774 murine macrophage-like cells, 30,000 J774 cells/well were seeded in bar-coded 384-well black, clear bottom plates in a 30 μl volume in J774 infection media (DMEM+10% FBS+1 mM sodium pyruvate+2 mM L-glutamine) using a ThermoFisher Multidrop Combi reagent dispenser, one day prior to assay start. On the day of the assay, log-phase Mtb constitutively expressing mKO were pelleted and resuspended in 1 ml basal uptake buffer (0.5% bovine serum albumin+25 mM dextrose+0.5 mM MgCl2+1 mM CaCl2+0.1% gelatin in phosphate buffered saline (PBS), passed 6× though a tuberculin syringe with a 25 G×5/8″ needle, then resuspended in J774 infection media to a final OD600=0.2. 10 μl of this bacterial suspension was added to each well of the 384-well plates containing the J774 cells, followed by addition of 10 μl of the appropriate compounds (pre-aliquoted in v-bottom plates in a 1:1 mix of PBS:J774 infection media). Addition of Mtb and compounds were conducted using a Janus Ministation. For each test plate, two columns of controls (16 wells each) were included, with one column consisting of treatment with DMSO as a carrier control (negative control), and the other column consisting of treatment with 5 μM rifampicin (positive control). This tertiary assay was done as a dose-response assay in duplicate runs, with compounds tested beginning at a final concentration of 20 μM and two-fold dilutions down to 0.039 μM. Plates were kept in humidified ziplock bags in a 37° C., 5% CO2 incubator. 6 days post-infection, mKO fluorescence signal was read using a PerkinElmer EnVision multimode plate reader (bottom read filter, excitation 530/8 nm, Bodipy TMR D555 single mirror, emission 579/25 nm). mKO fluorescence in DMSO-treated control samples were defined as 100% growth, and fluorescence observed in treatment conditions calculated as a percentage from that set value.
For J774 infection in 96-well plates, 180,000 J774 cells were seeded per well in 180 μl of J774 infection media one day prior to infection. On the day of the assay, log-phase Mtb constitutively expressing mKO were pelleted and resuspended in 1 ml basal uptake buffer, passed 6× though a tuberculin syringe with a 25 G×5/8″ needle, then resuspended in J774 infection media to a final OD600=0.2. Media was removed from 96-well plate containing the J774 cells, with 140 μl of fresh J774 infection media added back to each well. 40 μl of the Mtb suspension at OD600=0.2 was added to each well, followed by addition of appropriate concentration of compound or DMSO in a 20 μl final volume in J774 infection media (compound final concentration 10 μM, rifampicin final concentration 5 μM, DMSO final concentration 0.1%/well). Bacterial mKO fluorescence was read immediately after infection using a Biotek Synergy Neo2 microplate reader (bottom read monochromator, excitation 543/10 nm, emission 565/10 nm), and again 6 days post-infection. Plates were kept in humidified ziplock bags in a 37° C., 5% CO2 incubator. mKO fluorescence in DMSO-treated control samples were defined as 100% growth, and fluorescence observed in treatment conditions calculated as a percentage from that set value.

[2] = Kinetic aqueous solubility in pH 7.4 PBS; format: physicochemical; conditions: read-out: Kinetic Aqueous Solubility S
Method: (§1) Assays examining mouse and human liver microsomal stability, kinetic aqueous solubility, mouse and human plasma protein binding and stability, and human cytochrome P450 inhibition characteristics of the compounds were run by BioDuro, Incorporated, using standard protocols as previously described (Wang et al, 2020). hERG inhibition assays were also performed by BioDuro, Incorporated.

[3] = test system: rv2390c′::GFP reporter Mtb strain; format: cell-based, Mycobacterium tuberculosis; conditions: for rv2390c′::GFP reporter signal upon Mtb exposure to high [Cl−] (in words): 10 μM, 250 mM NaCl; for rv2390c′::GFP Cl− response phenotype: compared to C6
[4] = test system: Mtb in bone marrow-derived macrophages (BMDMs); test: Mtb growth in primary murine bone marrow-derived macrophages (CFU); format: cell-based, Mycobacterium tuberculosis; conditions: 10 μM; added 2 hrs post-infection; eight-day time-course
Method: C57BL/6J wild type mice (Jackson Laboratories) were used for extraction of bone marrow-derived macrophages. Cells were harvested and expanded in DMEM containing 10% FBS, 15% L-cell conditioned media, 2 mM L-glutamine, 1 mM sodium pyruvate, and penicillin/streptomycin as needed in a 37° C. incubator in a 5% CO2 atmosphere. […] Macrophages were lysed with water containing 0.01% sodium dodecyl sulfate and a dilution series of the samples plated on 7H10 agar for CFU determination.

[5] = Mouse pharmacokinetics, single oral dose; format: in vivo, CD-1 mice; conditions: for Kp at 5 h / AUC(0-t): female, single 25 mg/kg po dose; for Kp at 5 h: CD-1, mouse, lung vs plasma, read-out: Mouse PK Clung/Cplasma at t = 5 h; for AUC(0-t): mouse, CD-1 mice, read-out: Mouse PK AUC0-5h
Method: Blood samples were collected in K2EDTA coated tubes pre-dose, 0.5, 1, 3 and 5 hrs post-dose, placed on ice, and centrifuged to recover plasma. The recovered plasma was kept at −80° C. as needed prior to analysis, which was performed as previously described (Wang et al, 2020). In brief, a Sciex Applied Biosystems Qtrap 4000 triple-quadrupole mass spectrometer coupled to an Agilent 1260 HPLC system was used for HPLC coupled to tandem mass spectrometry (LC-MS/MS) quantitative analysis of the samples, with chromatography attained using an Agilent Zorbax SB-C8 column (2.1×30 mm; particle size, 3.5 μm) and a reverse phase gradient elution. The aqueous mobile phase consisted of Milli-Q deionized water with 0.1% formic acid (A), while the organic mobile phase was 0.1% formic acid in acetonitrile (B). The gradient set-up was as follows: 5-90% B over 2 mins, 1 min at 90% B, then an immediate drop to 5% B and an additional 1 min at 5% B. Quantification of molecules was carried out via multiple-reaction monitoring of parent/daughter transitions in electrospray positive-ionization mode, and sample analyses accepted if quality control and standard samples had concentrations within 20% of the nominal concentration. Preparation of compounds for generation of standard curves and quality control spiking solutions were performed as previously described (Wang et al, 2020). Data were processed using Analyst software (Version 1.6.2; Applied Biosystems Sciex).

[6] = Mouse liver microsomal stability; format: in vitro ADME; conditions: mouse liver microsomes; for half-life: read-out: MLM t1/2
Method: as §1

[7] = test system: Mtb; test: Mtb growth assay in cholesterol media (OD600); format: cell-based, Mycobacterium tuberculosis; conditions: for Growth inhibition in cholesterol media phenotype: compared to C6
[8] = test system: J774 cells; test: Intracellular drug accumulation assay in J774 cells; conditions: 24 h exposure; uninfected J774 cells
[9] = test system: murine bone marrow derived macrophages phagosome; test: Phagosomal maturation assays with sensor beads; format: cell-based, mouse; conditions: 10 μM
Method: Carboxyfluorescein (pH readout), DQ-BSA/Alexa Fluor 594 (AF594) (proteolysis readout), and 10,10′-Bis[3-carboxylpropyl]-9,9′-biacridinium (BAC)/AF594 (Cl^− readout) beads were generated as previously described (Podinovskaia et al, 2013; Tan et al, 2013; Tan et al, 2017; Yates et al, 2008). Bone marrow-derived macrophages were isolated from C57BL/6J mice (Jackson Laboratories) and maintained as described above. 2×10^5 macrophages/well were seeded into 96-well clear bottom black plates, and utilized in assays one-two days post-seeding. […] Assay buffer consisted of PBS, pH 7.2, supplemented with 5% FBS, 5 mM dextrose, 1 mM CaCl2, 2.7 mM KCl, and 0.5 mM MgCl2 in the case of assays with the carboxyfluorescein or DQ-BSA/AF594 beads (Buter et al, 2019; Dutta et al, 2020). For assays with the BAC/AF594 beads, assay buffer consisted of PBS, pH 7.2, supplemented with 5% FBS, 5 mM dextrose, 1 mM calcium acetate, 1.35 mM K2SO4, and 0.5 mM MgSO4 (Tan et al, 2013). Sensor beads at ˜2-5 beads/macrophage in appropriate assay buffer were finally added, with data acquisition on a Biotek Synergy H1 microplate reader with bottom read signal detection started within 2-3 minutes of bead addition. Excitation/emission wavelengths were 450 nm/520 nm and 490 nm/520 nm for carboxyfluorescein, 490 nm/520 nm for DQ-BSA, 365 nm/505 nm for BAC, and 590 nm/617 nm for AF594. Each experiment was run with a total of 3-5 replicate wells/condition, with temperature maintained at 37° C. throughout the assay. Wells were read every 2 minutes for 2 hours for the carboxyfluorescein bead assays, every 2 minutes for 4 hours for the DQ-BSA/AF594 bead assays, and every 1 minute for 2 hours for the BAC/AF594 bead assays. Analyses of the results were performed as previously described (Buter et al, 2019; Dutta et al, 2020; Podinovskaia et al, 2013; Tan et al, 2013).

[10] = test system: Mtb; test: C3HeB/FeJ murine Mtb infection model; format: in vivo, C3HeB/FeJ mice; conditions: 150 mg/kg, 5 days/week oral gavage for 2 weeks, started 2 or 6 weeks post-infection
Method: C3HeB/FeJ wild type mice (Jackson Laboratories) were infected intranasally with 10^3 CFUs of Mtb (35 μl), under light anesthesia with 2% isoflurane (MacGilvary et al, 2019; Sukumar et al, 2014; Tan et al, 2013). […] The next day the suspension was homogenized by bead beating with 5 mm steel beads in a TOMY microtube mixer (2×20 s), and stored at 4° C. until use. […] Administration began at two or six weeks post-infection as indicated. At time of sacrifice, the left lobe and accessory right lobe of the lung were homogenized in PBS+0.05% Tween 80 and serial dilutions plated on 7H10 agar plates with 100 μg/ml cycloheximide for bacterial load determination. The remaining three right lobes were fixed in 4% PFA in PBS. One lobe was used for histological analysis by standard hematoxylin and eosin (H&E) staining (Tufts Comparative Pathology Services). A Nikon Eclipse E400 with a SPOT insight color digital camera was used to image the histology samples.

## O=C(c1cnc2ccccn12)N1CCCC(CCc2cccc(C(F)(F)F)c2)C1 (centres unmarked) [Compound C5, Imidazo[1,2-a]pyridin-3-yl(3-(3-(trifluoromethyl)phenethyl)piperidin-1-yl)methanone]
[1]
  Mtb growth in J774 cells (in words): Mtb growth inhibition
[1]; Mycobacterium tuberculosis, J774CELLS, J774, 144 h, read-out: % inhibition compared to Rif in J774 at 10 μM
  inhibition at 10 µM: 50.9 ± 3.2%
[1]; Mycobacterium tuberculosis, J774CELLS, J774, 144 h, read-out: % inhibition compared to Rif in J774 at 20 μM
  inhibition at 20 µM: 55%
[2]; pH 7.4 phosphate buffered saline (PBS)
  solubility kinetic: 6.67 µM (≈ 2.68 µg/mL)
[3]
  rv2390c′::GFP reporter signal upon Mtb exposure to high [Cl−] (in words): increased rv2390c′::GFP reporter signal
[3]; screen hits, high chloride (250 mM NaCl, pH 6.4)
  rv2390c′::GFP response phenotype: Increases induction in high
[4]
  Mtb bacterial load / growth in primary murine BMDM (in words): significant decrease in bacterial load
[5]; single 5 mg/kg oral (po) dose, plasma, CD-1 mice (n=2)
  AUC0-5 h: 42 ng·h/mL
[6]
  MLM t1/2: 4.98 min

## c1ccc2oc(N3CCN(Cc4cncnc4)CC3)nc2c1 [JSF-4297, 2-(4-(pyrimidin-5-ylmethyl)piperazin-1-yl)benzo[d]oxazole]
[7]; 10 μM, OD600
  Mtb growth in cholesterol media (in words): no longer inhibited Mtb growth in cholesterol media
[7]
  Growth inhibition in cholesterol media phenotype: N
[1]
  Mtb growth in J774 cells (in words): loss of the ability to inhibit Mtb growth
  Inhibition of Mtb growth in J774 cells phenotype: N
[3]
  rv2390c′::GFP reporter signal upon Mtb exposure to high [Cl−] (in words): lost the ability
  rv2390c′::GFP Cl− response phenotype: N
[4]
  Mtb bacterial load / growth in primary murine BMDM (in words): loss of the ability to inhibit Mtb growth
[8]
  intracellular accumulation in J774 cells: no detectable accumulation

## CCSc1ncc(CN2CCN(c3nc4ccccc4[nH]3)CC2)cn1 [JSF-4299, 2-(4-((2-(ethylthio)pyrimidin-5-yl)methyl)piperazin-1-yl)-1H-benzo[d]imidazole]
[7]
  Growth inhibition in cholesterol media phenotype: Y
[1]
  Inhibition of Mtb growth in J774 cells phenotype: Y
[3]
  rv2390c′::GFP Cl− response phenotype: Y
[9]; DQ-BSA/AF594 beads
  macrophage phagosomal proteolytic activity: decrease in the extent of proteolysis
[9]; carboxyfluorescein beads
  macrophage phagosomal acidification: delay in acidification

## CCSc1ncc(CN2CCN(c3nc4ccc(C)cc4o3)CC2)cn1 [JSF-4527, 2-(4-((2-(ethylthio)pyrimidin-5-yl)methyl)piperazin-1-yl)-6-methylbenzo[d]oxazole]
[1]
  % Reduction of Intracellular Infection (J774.1 cells) at 10 μM cmpd: 53.8 ± 2.1%
  Inhibition of Mtb growth in J774 cells phenotype: Y
[2]; PBS, pH 7.4, aqueous buffer, kinetic from dmso stock, Table 2
  solubility kinetic: 13.7 µM (≈ 5.06 µg/mL)
[3]
  rv2390c′::GFP Cl− response phenotype: Y
[5]
  Kp at 5 h: 0.55
[5]; plasma
  AUC(0-t): 16300 ng·h/mL
[6]
  half-life: 38.7 min

## CCSc1ncc(CN2CCN(c3nc4ccc(C#N)cc4o3)CC2)cn1 [JSF-4538, 2-(4-((2-(ethylthio)pyrimidin-5-yl)methyl)piperazin-1-yl)benzo[d]oxazole-6-carbonitrile]
[1]
  % Reduction of Intracellular Infection (J774.1 cells) at 10 μM cmpd: 36.4 ± 2.6%
[3]
  rv2390c′::GFP Cl− response phenotype: Y
[5]
  Kp at 5 h: 0.3
[5]; plasma
  AUC(0-t): 98700 ng·h/mL
[10]
  Mtb growth in vivo (lung CFUs): inhibits Mtb growth in vivo
[6]
  half-life: 25.5 min

— patent US20240300934A1, “COMPOUNDS FOR MODULATING MYCOBACTERIUM TUBERCULOSIS RESPONSE” (priority 2021, published 2024)
